In US8247211B2, “Glycopeptide antibiotics” (American Cyanamid Company, priority 2001, dated 2012):

Assays:
Enterococcus sp. = assay: In vitro antibacterial evaluation: minimum inhibitory concentration (MIC), broth dilution method; assay type: cell-based; details: 18 hours at 35° C.
Method in brief: (§1)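 NCCLS M7-A2 broth dilution with Mueller-Hinton II, testing 64-0.06 μg/mL antibiotic against 5×10^5 CFU/mL inocula. Test strains include recent methicillin-, penicillin- or vancomycin-resistant clinical isolates. MIC is the lowest concentration preventing growth.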

Escherichia coli = assay: as above; assay type: cell-based; details: 18 hours at 35° C.
Method in brief: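 Susceptibility determined by NCCLS-recommended broth dilution (M7-A2), Muller-Hinton II […]. Concentration span 64-0.06 μg/mL, inoculum 5×10^5 CFU/mL. Isolates include strains resistant to methicillin, penicillin and/or vancomycin.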

Staphylococcus sp. = assay: as above; assay type: cell-based; details: 18 hours at 35° C.
Method in brief: as §1

Streptococcus sp. = assay: as above; assay type: cell-based; details: 18 hours at 35° C.
Method in brief: as §1

[1] = tested on: Staphylococcus aureus-SMITH (GC 4543); assay: Acute lethal infection in mice (ED50); assay type: in vivo; details: female CD-1 mice, intraperitoneal challenge, intravenous dose 30 min. after infection, 7 day survival ratios
Method in brief: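 ED50 derived from pooled 7-day survival in three separate experiments, five mice per dose level. Single intravenous dose 30 min after intraperitoneal infection of female CD-1 mice with enough bacteria to kill untreated animals in 24-48 h.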

[2] = Enterococcus faecalis (ATCC 29212)
[3] = Enterococcus faecalis (GC 2242)
[4] = Enterococcus faecalis (GC 2691)
[5] = Enterococcus faecalis (GC 3059)
[6] = Enterococcus faecalis (GC 4552)
[7] = Enterococcus faecalis (GC 4553)
[8] = Enterococcus faecalis (GC 4554)
[9] = Enterococcus faecalis (GC 6189)
[10] = broth dilution, inoculum 5×10^5 CFU/mL
[11] = Streptococcus pneumoniae (ATCC 6301)
[12] = Streptococcus pneumoniae (GC 1894)
[13] = Streptococcus pyogenes (GC 4563)

CC(c1ccccc1)C1NC(=O)CNC(=O)C(CO)NC(=O)C(C(O)C2CNC(=N)N2C2OC(CO)C(O)C(O)C2O)NC(=O)C(C(O)C2CNC(=N)N2)NC(=O)C(Cc2ccc(OC3OC(CO)C(OC4OC(CO)C(OCc5ccc(OCc6ccccc6)cc5)C(O)C4O)C(O)C3O)cc2)NC1=O (stereo not drawn) [Example 231a, Cyclo[glycyl-β-methylphenylalanyl-O-[4-O-[4-O-[4-(phenylmethoxy)benzyl]hexopyranosyl]-hexopyranosyl]tyrosyl-3-(2-iminoimidazolidin-4-yl)seryl-3-(3-hexopyranosyl-2-iminoimidazolidin-4-yl)serylseryl]]
0.5 to 1 µg/mL: MIC Staphylococcus aureus (GC 4542) (Staphylococcus sp.)
2 to 4 µg/mL: MIC Enterococcus faecalis (GC 2242) (Enterococcus sp.; [3]) | MIC Enterococcus faecium (GC 4556) (Enterococcus sp.; Enterococcus faecium (GC 4556)) | MIC Enterococcus faecalis (GC 2242) (Enterococcus sp.; [10]) | MIC Enterococcus faecium (GC 4556) (Enterococcus sp.; [10]) | MIC Staphylococcus aureus (GC 4544) (Staphylococcus sp.)
32 µg/mL: MIC Escherichia coli (GC 4559) (Escherichia coli; Escherichia coli (GC 4559))
1 µg/mL: MIC Coagulase Negative Staphylococcus (GC 4547) (Staphylococcus sp.) | MIC Staphylococcus aureus (GC 3051) (Staphylococcus sp.) | MIC Staphylococcus aureus-SMITH (GC 4543) (Staphylococcus sp.) | MIC Staphylococcus haemolyticus (GC 4546) (Staphylococcus sp.; Staphylococcus haemolyticus (GC 4546))
4 µg/mL: MIC Enterococcus faecalis (GC 4552) (Enterococcus sp.; [6]) | MIC Enterococcus faecalis (GC 4553) (Enterococcus sp.; [7]) | MIC Enterococcus faecalis (GC 4554) (Enterococcus sp.; [8]) | MIC Enterococcus faecalis (GC 4552) (Enterococcus sp.; [10]) | MIC Enterococcus faecalis (GC 4553) (Enterococcus sp.; [10]) | MIC Enterococcus faecalis (GC 4554) (Enterococcus sp.; [10])
<0.06 µg/mL: MIC Streptococcus agalactiae (GC 4564) (Streptococcus sp.; Streptococcus agalactiae (GC 4564)) | MIC Streptococcus pneumoniae (ATCC 6301) (Streptococcus sp.; [11]) | MIC Streptococcus pneumoniae (GC 1894) (Streptococcus sp.; [12]) | MIC Streptococcus pneumoniae (GC 4565) (Streptococcus sp.; Streptococcus pneumoniae (GC 4565)) | MIC Streptococcus pyogenes (GC 4563) (Streptococcus sp.; [13]) | MIC Streptococcus agalactiae (GC 4564) (Streptococcus sp.; [10]) | MIC Streptococcus pneumoniae (ATCC 6301) (Streptococcus sp.; [10]) | MIC Streptococcus pneumoniae (GC 1894) (Streptococcus sp.; [10]) | MIC Streptococcus pneumoniae (GC 4565) (Streptococcus sp.; [10]) | MIC Streptococcus pyogenes (GC 4563) (Streptococcus sp.; [10])
0.5 µg/mL: MIC Coagulase Negative Staphylococcus (GC 4551) (Staphylococcus sp.) | MIC Coagulase Negative Staphylococcus (GC 6257) (Staphylococcus sp.; Coagulase Negative Staphylococcus (GC 6257))
0.5 to 2 µg/mL: MIC Escherichia coli (GC 4560) (Escherichia coli)
1 to 2 µg/mL: MIC Enterococcus faecalis (GC 3059) (Enterococcus sp.; [5]) | MIC Enterococcus faecalis (GC 6189) (Enterococcus sp.; [9]) | MIC Enterococcus faecalis (GC 3059) (Enterococcus sp.; [10]) | MIC Enterococcus faecalis (GC 6189) (Enterococcus sp.; [10]) | MIC Staphylococcus aureus (ATCC 29213) (Staphylococcus sp.) | MIC Staphylococcus aureus (GC 1131) (Staphylococcus sp.) | MIC Staphylococcus aureus (GC 3053) (Staphylococcus sp.) | MIC Staphylococcus aureus (GC 4541) (Staphylococcus sp.) | MIC Staphylococcus aureus (GC 4545) (Staphylococcus sp.)
0.06 mg/kg: median effective dose (ED50), Staphylococcus aureus-SMITH (GC 4543) [1]
2 µg/mL: MIC Enterococcus avium (GC 4558) (Enterococcus sp.; Enterococcus avium (GC 4558)) | MIC Enterococcus faecalis (ATCC 29212) (Enterococcus sp.; [2]) | MIC Enterococcus faecalis (GC 2691) (Enterococcus sp.; [4]) | MIC Enterococcus faecium (GC 2243) (Enterococcus sp.; Enterococcus faecium (GC 2243)) | MIC Enterococcus faecium (GC 4557) (Enterococcus sp.; Enterococcus faecium (GC 4557)) | MIC Enterococcus avium (GC 4558) (Enterococcus sp.; [10]) | MIC Enterococcus faecalis (ATCC 29212) (Enterococcus sp.; [10]) | MIC Enterococcus faecalis (GC 2691) (Enterococcus sp.; [10]) | MIC Enterococcus faecium (GC 2243) (Enterococcus sp.; [10]) | MIC Enterococcus faecium (GC 4557) (Enterococcus sp.; [10])

CCCOc1ccc(COCC2OC(OC3C(CO)OC(Oc4ccc(CC5NC(=O)C(C(C)c6ccccc6)NC(=O)CNC(=O)C(CO)NC(=O)C(C(O)C6CNC(=N)N6C6OC(CO)C(O)C(O)C6O)NC(=O)C(C(O)C6CNC(=N)N6)NC5=O)cc4)C(O)C3O)C(O)C(O)C2O)cc1 (stereo not drawn) [Example 235, Cyclo[glycyl-β-methylphenylalanyl-O-[4-O-[6-O-(4-propoxybenzyl)hexopyranosyl]hexopyranosyl]tyrosyl-3-(2-iminoimidazolidin-4-yl)seryl-3-(3-hexopyranosyl-2-iminoimidazolidin-4-yl)serylseryl]]
<0.06 µg/mL: MIC Streptococcus pneumoniae (GC 1894) (Streptococcus sp.; [12]) | MIC Streptococcus pneumoniae (GC 1894) (Streptococcus sp.; [10])
0.5 to 2 µg/mL: MIC Enterococcus faecium (GC 4557) (Enterococcus sp.; Enterococcus faecium (GC 4557)) | MIC Staphylococcus aureus (GC 3051) (Staphylococcus sp.) | MIC Staphylococcus aureus (GC 4542) (Staphylococcus sp.)
4 to 8 µg/mL: MIC Enterococcus faecalis (GC 3059) (Enterococcus sp.; [5]) | MIC Enterococcus faecalis (GC 4554) (Enterococcus sp.; [8]) | MIC Enterococcus faecalis (GC 3059) (Enterococcus sp.; [10])
0.59 mg/kg: median effective dose (ED50), Staphylococcus aureus-SMITH (GC 4543) [1]
0.5 to 1 µg/mL: MIC Escherichia coli (GC 4560) (Escherichia coli) | MIC Coagulase Negative Staphylococcus (GC 4547) (Staphylococcus sp.) | MIC Coagulase Negative Staphylococcus (GC 4551) (Staphylococcus sp.) | MIC Staphylococcus aureus (ATCC 29213) (Staphylococcus sp.) | MIC Staphylococcus aureus (GC 4541) (Staphylococcus sp.) | MIC Staphylococcus aureus-SMITH (GC 4543) (Staphylococcus sp.)
1 to 2 µg/mL: MIC Staphylococcus aureus (GC 1131) (Staphylococcus sp.) | MIC Staphylococcus aureus (GC 3053) (Staphylococcus sp.) | MIC Staphylococcus aureus (GC 4544) (Staphylococcus sp.) | MIC Staphylococcus aureus (GC 4545) (Staphylococcus sp.)
0.25 µg/mL: MIC Streptococcus pyogenes (GC 4563) (Streptococcus sp.; [13]) | MIC Streptococcus pyogenes (GC 4563) (Streptococcus sp.; [10])
4 µg/mL: MIC Enterococcus avium (GC 4558) (Enterococcus sp.; Enterococcus avium (GC 4558)) | MIC Enterococcus faecalis (ATCC 29212) (Enterococcus sp.; [2]) | MIC Enterococcus faecalis (GC 2242) (Enterococcus sp.; [3]) | MIC Enterococcus faecalis (GC 2691) (Enterococcus sp.; [4]) | MIC Enterococcus faecalis (GC 4552) (Enterococcus sp.; [6]) | MIC Enterococcus faecalis (GC 4553) (Enterococcus sp.; [7]) | MIC Enterococcus faecalis (GC 6189) (Enterococcus sp.; [9]) | MIC Enterococcus faecium (GC 2243) (Enterococcus sp.; Enterococcus faecium (GC 2243)) | MIC Enterococcus faecium (GC 4556) (Enterococcus sp.; Enterococcus faecium (GC 4556)) | MIC Enterococcus faecalis (GC 2242) (Enterococcus sp.; [10]) | MIC Enterococcus faecalis (GC 2691) (Enterococcus sp.; [10])
0.12 µg/mL: MIC Streptococcus pneumoniae (ATCC 6301) (Streptococcus sp.; [11]) | MIC Streptococcus pneumoniae (ATCC 6301) (Streptococcus sp.; [10])
